Patent publication US6583155B2, “Method for treating allergies using substituted pyrazoles” (priority 2000, dated 2003)
“Also recorded” adds a separate entry of the source.

Tests used:
[1] = system: human T cells (PBMC from allergic donors) stimulated with ragweed extracts; assay: Ex vivo human T cell-proliferation assay, ragweed allergen extracts; conditions: PBMC from allergy donors, 7 days culture, 3H-thymidine incorporation
[2] = system: human T cells (PBMC from allergic donors) stimulated with house dust mite extracts; assay: Ex vivo human T cell-proliferation assay, house dust mite allergen extracts
[3] = system: human T cells (PBMC) stimulated with ConA; assay: Ex vivo human T cell-proliferation assay, ConA (pan-T cell mitogen) control; conditions: pan-T cell mitogen specificity control
[4] = system: invariant chain (li) degradation in PBMC from human blood; assay: Monitoring cathepsin S inhibition in human blood: p10li fragment by Western blot; conditions: incubation for 24 h, SDS-PAGE / Western blot

Compound	T cell proliferative responses to ragweed extracts (short and giant) [1]	T cell proliferative responses to Der f extract ([2]; PBMC from an allergy donor, titrated doses of compound, 7 days, 3H-thymidine incorporation (FIG. 3))	T cell proliferative responses to house dust mite extracts (Der p and Der f) ([2]; PBMC from allergy donors, 7 days culture, 3H-thymidine incorporation)	T cell proliferative responses induced by ConA [3]	p10li fragment of invariant chain (block in degradation of li) [4]
CS(=O)(=O)N1CCc2c(c(-c3ccc(Br)cc3)nn2CC(O)CN2CCC(n3c(=O)[nH]c4ccc(Cl)cc43)CC2)C1 (stereo not shown) [Example 8, 1-(1-{3-[3-(4-Bromo-phenyl)-5-methanesulfonyl-4,5,6,7-tetrahydro-pyrazolo[4,3-c]pyridin-1-yl]-2-hydroxy-propyl}-piperidin-4-yl)-6-chloro-1,3-dihydro-benzoimidazol-2-one]	inhibition	inhibition			
Cc1cc(-c2nn(CC(O)CN3CCC(n4c(=O)[nH]c5ccc(Cl)cc54)CC3)c3c2CN(S(C)(=O)=O)CC3)ccc1Cl (stereo not shown) [Example 53, 6-Chloro-1-(1-{3-[3-(4-chloro-3-methyl-phenyl)-5-methanesulfonyl-4,5,6,7-tetrahydro-pyrazolo[4,3-c]pyridin-1-yl]-2-hydroxy-propyl}-piperidin4-yl)-1,3-dihydro-benzoimidazol-2-one]	inhibition				
CC(C)C[C@H](NC(=O)N1CCOCC1)C(=O)N[C@H](/C=C/S(=O)(=O)c1ccccc1)CCc1ccccc1 [LHVS, 4-morpholinecarboxamide, N-[(1S)-3-methyl-1-[[[(1S, 2E)-1-(2-phenylethyl)-3-(phenylsulfonyl)-2-propenyl]amino]carbonyl]butyl]-]	strongly inhibited; also recorded: inhibition		strongly inhibited; also recorded: inhibition	not affected	the p10li fragment was seen
